Test results as given in ChEMBL document CHEMBL3046619, “Peroxidizing Phytotoxicities of 1, 2-Dialkyl-1, 2, 4-triazolidines and 3, 4-Dialkyl-1, 3, 4-thiadiazolidines” (J Pestic Sci, 1997).

Biological target: T1, Protoporphyrinogen IX oxidase (Zea mays, UniProt Q9FYV8)
T1 sequence (Q9FYV8 whole entry): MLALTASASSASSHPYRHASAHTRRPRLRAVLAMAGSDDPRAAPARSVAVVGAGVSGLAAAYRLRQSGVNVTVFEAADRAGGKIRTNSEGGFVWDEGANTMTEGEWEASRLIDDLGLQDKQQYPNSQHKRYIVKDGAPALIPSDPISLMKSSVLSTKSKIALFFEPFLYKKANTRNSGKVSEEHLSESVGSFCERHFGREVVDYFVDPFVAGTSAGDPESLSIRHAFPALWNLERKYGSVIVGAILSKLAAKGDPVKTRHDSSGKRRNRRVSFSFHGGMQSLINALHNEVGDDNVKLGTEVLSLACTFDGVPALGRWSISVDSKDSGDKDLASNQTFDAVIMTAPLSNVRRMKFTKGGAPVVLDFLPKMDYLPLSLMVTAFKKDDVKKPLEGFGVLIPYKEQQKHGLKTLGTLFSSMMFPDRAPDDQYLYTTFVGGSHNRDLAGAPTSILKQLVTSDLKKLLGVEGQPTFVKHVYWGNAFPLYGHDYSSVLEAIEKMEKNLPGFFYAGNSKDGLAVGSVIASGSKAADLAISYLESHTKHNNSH
Assay: Inhibition of Zea mays (maize) protoporphyrinogen IX oxidase
Details: read-out: pI50 (converted)

Structure (SMILES)	IC50 [nM]
S=c1n(-c2ccc(Br)cc2)c(=S)n2n1CCCC2	10
O=c1[nH][nH]c(=S)n1-c1ccc(Br)cc1	72400
Cn1c(=O)n(-c2ccc(Br)cc2)c(=O)n1C	12900
Cn1c(=O)n(-c2ccc(Br)cc2)c(=S)n1C	282
Cn1c(=S)n(-c2ccc(Br)cc2)c(=S)n1C	110
CCn1c(=O)n(-c2ccc(Br)cc2)c(=O)n1CC	36300
CCn1c(=O)n(-c2ccc(Br)cc2)c(=S)n1CC	832
CCn1c(=S)n(-c2ccc(Br)cc2)c(=S)n1CC	1380
CCCn1c(=O)n(-c2ccc(Br)cc2)c(=S)n1CCC	24500
Cn1c(=O)s/c(=N\c2ccc(Br)cc2)n1C	3720
Cn1c(=S)s/c(=N\c2ccc(Br)cc2)n1C	3090
CCn1c(=O)s/c(=N\c2ccc(Br)cc2)n1CC	8710
CCn1c(=S)s/c(=N\c2ccc(Br)cc2)n1CC	4270
S=c1n(-c2ccc(Br)cc2)c(=S)n2n1CCC2	34.7
S=c1n(-c2ccc(Br)cc2)c(=S)n2n1CCCCC2	129
O=C1C2=C(CCCC2)C(=O)N1c1ccc(Cl)cc1 [CHLOROPHTHALIUM]	50.1
